Experimental data reported in ChEMBL document CHEMBL1782016, “Improvement in aqueous solubility in small molecule drug discovery programs by disruption of molecular planarity and symmetry” (J Med Chem, 2011).
Values after ≈ are worked out from the molar mass of the structure shown. Active and inactive are the calls of the source. No cut-off for these calls is given here.

What was measured:
[1] = molecular target: Integrin alpha-IIb/beta-3 (Homo sapiens, UniProt P05106+P08514); experiment: Antagonist activity at alpha2bbeta3 integrin receptor; format: functional
Integrin alpha-V/beta-3 [2] = molecular target: T1, Integrin alpha-V/beta-3 (Homo sapiens, UniProt P05106+P06756); experiment: Antagonist activity at alphavbeta3 integrin receptor; format: functional
[3] = Antiplatelet activity in human platelet rich plasma assessed as inhibition of platelet aggregation; format: functional
Integrin alpha-V/beta-3 [4] = molecular target: T1, Integrin alpha-V/beta-3; experiment: Antagonist activity at alphavbeta3 integrin receptor human VSMC assessed as inhibition of vitronectin-induced cell adhesion; format: functional, cell-based
[5] = Aqueous solubility of the compound in water
[6] = molecular target: T2, Peroxisome proliferator-activated receptor alpha (Homo sapiens) (UniProt Q07869); experiment: Agonist activity at PPARalpha at 1 uM; format: functional
T2 sequence (whole entry): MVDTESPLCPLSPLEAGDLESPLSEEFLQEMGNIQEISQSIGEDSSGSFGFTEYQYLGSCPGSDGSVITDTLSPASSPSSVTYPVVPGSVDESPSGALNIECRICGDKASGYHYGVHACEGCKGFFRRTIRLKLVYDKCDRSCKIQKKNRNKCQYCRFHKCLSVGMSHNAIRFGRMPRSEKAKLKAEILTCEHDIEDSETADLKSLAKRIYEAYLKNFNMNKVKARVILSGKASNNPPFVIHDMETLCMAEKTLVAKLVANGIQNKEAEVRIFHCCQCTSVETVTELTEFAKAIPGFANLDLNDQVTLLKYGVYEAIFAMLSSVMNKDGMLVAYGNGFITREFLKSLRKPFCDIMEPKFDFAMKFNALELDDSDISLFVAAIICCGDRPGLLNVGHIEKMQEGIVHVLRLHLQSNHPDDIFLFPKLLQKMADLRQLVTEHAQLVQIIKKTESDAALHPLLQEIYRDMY

[7] = Inhibition of Escherichia coli H560 DNA gyrase mediated DNA cleavage
[8] = Oral bioavailability in rat; settings: in vivo
[9] = Aqueous solubility of the compound; format: physicochemical; settings: buffer
[10] = molecular target: Macrophage metalloelastase (Homo sapiens, UniProt P39900); experiment: Inhibition of MMP12
[11] = Aqueous solubility of the compound at pH 7.4; format: physicochemical; settings: buffer

Chain of Integrin alpha-IIb/beta-3 (P05106 27-788 limits assumed): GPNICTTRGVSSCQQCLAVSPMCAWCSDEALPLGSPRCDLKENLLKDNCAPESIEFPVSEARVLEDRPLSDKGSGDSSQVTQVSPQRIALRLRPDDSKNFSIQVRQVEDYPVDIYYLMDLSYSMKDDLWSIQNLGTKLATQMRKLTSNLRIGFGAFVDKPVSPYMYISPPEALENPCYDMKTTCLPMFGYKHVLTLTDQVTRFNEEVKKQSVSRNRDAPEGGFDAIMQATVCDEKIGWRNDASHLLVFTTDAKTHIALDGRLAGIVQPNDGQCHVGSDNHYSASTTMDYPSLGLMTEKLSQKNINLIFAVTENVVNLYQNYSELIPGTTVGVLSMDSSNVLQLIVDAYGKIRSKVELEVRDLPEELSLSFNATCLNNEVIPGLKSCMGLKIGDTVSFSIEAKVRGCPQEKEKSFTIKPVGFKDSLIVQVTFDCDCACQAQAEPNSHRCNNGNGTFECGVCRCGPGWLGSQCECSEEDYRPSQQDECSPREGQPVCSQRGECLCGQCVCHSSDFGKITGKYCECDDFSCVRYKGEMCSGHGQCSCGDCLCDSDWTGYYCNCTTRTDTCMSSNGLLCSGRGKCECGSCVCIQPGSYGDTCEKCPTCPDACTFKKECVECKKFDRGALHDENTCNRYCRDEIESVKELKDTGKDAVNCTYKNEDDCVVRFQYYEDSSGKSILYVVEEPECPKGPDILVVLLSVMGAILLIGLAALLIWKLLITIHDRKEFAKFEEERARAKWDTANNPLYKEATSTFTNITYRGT
Chain of Integrin alpha-IIb/beta-3 (P08514 32-887 limits assumed): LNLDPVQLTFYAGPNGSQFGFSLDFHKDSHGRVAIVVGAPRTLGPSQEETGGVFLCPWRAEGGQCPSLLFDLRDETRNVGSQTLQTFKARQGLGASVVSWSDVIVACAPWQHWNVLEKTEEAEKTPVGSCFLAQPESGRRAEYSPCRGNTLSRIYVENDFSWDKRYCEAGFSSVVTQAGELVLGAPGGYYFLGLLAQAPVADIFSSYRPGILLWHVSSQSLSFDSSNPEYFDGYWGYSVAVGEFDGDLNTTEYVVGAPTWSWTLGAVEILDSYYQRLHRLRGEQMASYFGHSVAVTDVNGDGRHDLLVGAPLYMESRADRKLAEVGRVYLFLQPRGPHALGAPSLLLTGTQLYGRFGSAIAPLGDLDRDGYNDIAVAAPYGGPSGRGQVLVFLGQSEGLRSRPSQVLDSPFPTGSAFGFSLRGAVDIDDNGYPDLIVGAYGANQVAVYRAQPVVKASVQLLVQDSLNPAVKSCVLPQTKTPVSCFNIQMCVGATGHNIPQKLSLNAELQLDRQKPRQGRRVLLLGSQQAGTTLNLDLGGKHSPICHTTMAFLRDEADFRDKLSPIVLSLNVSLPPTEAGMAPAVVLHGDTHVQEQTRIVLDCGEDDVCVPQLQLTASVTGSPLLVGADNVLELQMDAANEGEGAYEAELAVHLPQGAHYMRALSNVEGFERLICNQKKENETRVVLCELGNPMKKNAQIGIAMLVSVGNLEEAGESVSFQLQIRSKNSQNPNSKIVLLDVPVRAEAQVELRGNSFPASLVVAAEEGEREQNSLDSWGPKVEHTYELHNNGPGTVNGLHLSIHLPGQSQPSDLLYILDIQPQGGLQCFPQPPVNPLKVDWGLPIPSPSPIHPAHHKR
Chain of Integrin alpha-IIb/beta-3 (P08514 891-1039 limits assumed): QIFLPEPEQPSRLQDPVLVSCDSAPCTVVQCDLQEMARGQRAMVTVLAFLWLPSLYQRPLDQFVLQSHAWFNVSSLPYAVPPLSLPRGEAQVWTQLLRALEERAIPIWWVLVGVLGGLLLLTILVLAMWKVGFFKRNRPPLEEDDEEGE
T1 sequence (P05106 27-788 limits assumed): as the sequence (P05106 27-788 limits assumed) above
T1 sequence (P06756 31-889 limits assumed): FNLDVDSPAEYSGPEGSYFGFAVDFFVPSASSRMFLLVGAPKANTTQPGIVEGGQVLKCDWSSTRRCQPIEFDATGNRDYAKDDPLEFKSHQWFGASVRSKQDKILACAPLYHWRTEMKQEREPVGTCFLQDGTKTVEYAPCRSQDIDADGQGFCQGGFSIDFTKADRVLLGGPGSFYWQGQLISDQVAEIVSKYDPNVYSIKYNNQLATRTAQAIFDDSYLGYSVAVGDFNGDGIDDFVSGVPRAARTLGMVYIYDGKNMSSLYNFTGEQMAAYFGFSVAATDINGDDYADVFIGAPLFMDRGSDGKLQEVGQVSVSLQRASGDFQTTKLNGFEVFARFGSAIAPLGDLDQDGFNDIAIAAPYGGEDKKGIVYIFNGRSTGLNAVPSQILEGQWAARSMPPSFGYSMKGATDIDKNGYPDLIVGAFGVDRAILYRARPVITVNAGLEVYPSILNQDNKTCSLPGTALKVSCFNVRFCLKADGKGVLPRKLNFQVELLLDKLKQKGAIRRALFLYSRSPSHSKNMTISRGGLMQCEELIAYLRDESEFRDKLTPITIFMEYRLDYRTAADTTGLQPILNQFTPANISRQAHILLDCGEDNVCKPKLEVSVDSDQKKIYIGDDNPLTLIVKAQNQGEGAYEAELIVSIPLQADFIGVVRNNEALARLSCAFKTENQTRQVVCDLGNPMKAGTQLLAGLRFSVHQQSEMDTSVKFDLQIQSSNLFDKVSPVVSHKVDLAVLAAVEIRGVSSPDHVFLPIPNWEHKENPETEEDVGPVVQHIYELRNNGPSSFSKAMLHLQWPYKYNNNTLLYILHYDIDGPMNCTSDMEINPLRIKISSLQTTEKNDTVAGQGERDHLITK
T1 sequence (P06756 891-1048 limits assumed): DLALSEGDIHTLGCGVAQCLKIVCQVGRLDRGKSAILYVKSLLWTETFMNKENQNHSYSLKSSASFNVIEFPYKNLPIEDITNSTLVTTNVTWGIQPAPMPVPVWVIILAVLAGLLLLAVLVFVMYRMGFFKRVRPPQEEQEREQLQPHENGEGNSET
Chain of Macrophage metalloelastase (P39900 whole entry): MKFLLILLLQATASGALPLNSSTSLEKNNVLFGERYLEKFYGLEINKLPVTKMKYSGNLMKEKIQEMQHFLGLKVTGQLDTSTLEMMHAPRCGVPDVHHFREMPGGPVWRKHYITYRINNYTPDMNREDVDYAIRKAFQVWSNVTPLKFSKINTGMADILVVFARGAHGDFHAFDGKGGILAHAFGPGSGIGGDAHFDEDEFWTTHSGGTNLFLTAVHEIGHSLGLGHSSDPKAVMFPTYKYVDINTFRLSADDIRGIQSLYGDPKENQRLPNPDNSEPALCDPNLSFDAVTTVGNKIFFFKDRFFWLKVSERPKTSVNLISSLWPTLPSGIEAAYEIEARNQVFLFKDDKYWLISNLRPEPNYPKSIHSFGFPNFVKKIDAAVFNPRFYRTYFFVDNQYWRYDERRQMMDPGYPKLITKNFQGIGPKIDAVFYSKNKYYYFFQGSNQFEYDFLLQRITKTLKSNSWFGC

IC50 [1] [nM]	IC50 (Integrin alpha-V/beta-3 [2]) [nM]	IC50 [3] [nM]	IC50 (Integrin alpha-V/beta-3 [4]) [nM]	Compound	also measured
0.023	0.17	90	72	O=C(NC[C@H](NS(=O)(=O)c1ccccc1)C(=O)O)c1ccc(N2CCC(NC3=NCCCN3)CC2)c(Cl)c1	–
–	–	–	–	Clc1ccc(-c2ccccc2Cl)cc1	solubility ([5]; water): 637 µg/mL (≈ 2860 µM)
–	–	–	–	CCCCOc1ccc(-c2ccc(C(=O)O)cc2)cc1CNC(=O)c1ccc(C(F)(F)F)cc1F	Activity [6]: inactive
–	–	–	–	CCCCOc1ccc(-c2ccc(C(=O)O)cc2C)cc1CNC(=O)c1ccc(C(F)(F)F)cc1F	Activity [6]: inactive
0.18	0.14	230	53	O=C(NC[C@H](NS(=O)(=O)c1ccc(O)cc1)C(=O)O)c1ccc(N2CCC(NC3=NCCCN3)CC2)c(F)c1	solubility ([5]; water): 100 µg/mL (≈ 178 µM)
0.4	0.25	99	52	O=C(NC[C@H](NS(=O)(=O)c1cccs1)C(=O)O)c1ccc(N2CCC[C@H](NC3=NCCCN3)C2)cc1	solubility ([5]; water): 3300 µg/mL (≈ 6170 µM)
–	–	–	–	O=C(O)c1cc(C2CC2)c2cc(N3CCNCC3)c(F)cn2c1=O	IC50 [7]: 0.15 µg/mL (≈ 0.453 µM)
1.2	0.77	930	660	O=C(O)c1ccc(S(=O)(=O)N[C@@H](CNC(=O)c2ccc(N3CCC(NC4=NCCCN4)CC3)c(F)c2)C(=O)O)cc1	–
0.98	0.44	170	530	O=C(NC[C@H](NS(=O)(=O)c1ccccc1)C(=O)O)c1ccc(N2CCC(NC3=NCCCN3)CC2)c(O)c1	–
–	–	–	–	CCCCOc1ccc(-c2ccc(C(=O)O)cc2F)cc1CNC(=O)c1ccc(C(F)(F)F)cc1F	Activity [6]: inactive
–	–	–	–	CS(=O)(=O)O.O=c1c2ccc(Cl)cc2[nH]c2c(O)nn(Cc3ccncc3)c(=O)c12	bioavailability [8]: 5%
–	–	–	–	O=C(O)Cc1ccc(CNC(=O)c2cc(-c3ccc(-c4ccccc4O)cc3)cs2)cc1	solubility [9]: 134 µg/mL (≈ 302 µM); IC50 [10]: 90 nM
0.44	–	130	110	COc1cc(C(=O)NC[C@H](NS(=O)(=O)c2ccccc2)C(=O)O)ccc1N1CCC(NC2=NCCCN2)CC1	–
0.21	0.36	37	48	O=C(NC[C@H](NS(=O)(=O)c1ccccc1)C(=O)O)c1ccc(N2CCC(NC3=NCCCN3)CC2)c(F)c1	solubility ([5]; buffer): 600 µg/mL (≈ 1100 µM)
–	–	–	–	O=C(O)Cc1ccc(CNC(=O)c2cc(-c3ccc(-c4ccccc4)cc3)cs2)cc1	solubility [9]: < 1 µg/mL; IC50 [10]: 70 nM
–	–	–	–	CC(c1ccncc1)n1[nH]c(=O)c2[nH]c3cc(Cl)ccc3c(=O)c2c1=O.CS(=O)(=O)O (stereo not drawn)	solubility [11]: > 290 µg/mL
0.94	0.3	510	390	O=C(NC[C@H](NS(=O)(=O)c1ccc(O)cc1)C(=O)O)c1ccc(N2CCC(NC3=NCCCN3)CC2)c(O)c1	–
–	–	–	–	CCCCOc1ccc(-c2c(F)ccc(C(=O)O)c2F)cc1CNC(=O)c1ccc(C(F)(F)F)cc1F	Activity [6]: inactive
–	–	–	–	O=c1cc(-c2ccccc2)oc2ccc3ccccc3c12 [BETA-NAPHTHOFLAVONE]	solubility [9]: < 0.15 µg/mL
3	1.3	290	190	O=C(NC[C@H](NS(=O)(=O)c1ccccc1)C(=O)O)c1ccc(N2CCC(NC3=NCCCN3)CC2)cc1	solubility ([5]; water): < 100 µg/mL
–	–	–	–	Cc1c(N2CC[C@H](N)C2)c(F)cn2c(=O)c(C(=O)O)cc(C3CC3)c12 [ABT-719]	IC50 [7]: 0.03 µg/mL (≈ 0.0869 µM)
0.78	0.23	290	16	O=C(NC[C@H](NS(=O)(=O)c1ccccc1)C(=O)O)c1ccc(N2CCC[C@H](NC3=NCCCN3)C2)cc1F	solubility ([5]; water): 2800 µg/mL (≈ 5120 µM)
0.56	0.48	83	31	O=C(NC[C@H](NS(=O)(=O)c1ccccc1)C(=O)O)c1ccc(N2CCC[C@H](N=C3NCCCN3)C2)cc1	solubility ([5]; buffer): 3500 µg/mL (≈ 6620 µM)
